According to ChEMBL document CHEMBL5143576, “Tigliane Diterpenoids with Larvicidal, Antifungal, and α-Glucosidase Inhibitory Activities from Croton damayeshu” (J Nat Prod, 2022):
Converted amounts (≈) assume the structure as drawn.

Experiments:
Type in all cases: functional
Candida albicans [1] = test: Antifungal activity against Fluconazole- resistant Candida albicans incubated for 24 hrs by microbroth dilution method
Plutella xylostella = test: Larvicidal activity against Plutella xylostella assessed as mortality and measured upto 4 days; conditions: 96 h, time <= 4 day
Candida albicans [2] = test: Antifungal activity against Fluconazole- resistant Candida albicans incubated for 24 hrs in presence of fluconazole by microbroth dilution method
Candida albicans [3] = test: Antifungal activity against Candida albicans incubated for 24 hrs by microbroth dilution method

Compound	MIC50 (Candida albicans [1])	LC50 (Plutella xylostella)	MIC50 (Candida albicans [2])	MIC50 (Candida albicans [3])
CCCCC/C=C\CCC(=O)O[C@@]12[C@H](OC(=O)[C@@H](C)CC)[C@@H](C)[C@@]3(O)[C@@H](C(=O)C(CO)=C[C@]4(O)C(=O)C(C)=C[C@@H]34)[C@@H]1C2(C)C	200 mg/L (≈ 325 µM)	0.19 µM	63.4 mg/L	
CC[C@H](C)C(=O)O[C@@]12[C@H](OC(=O)c3ccccc3)[C@@H](C)[C@@]3(O)[C@@H](C=C(CO)C[C@]4(O)C(=O)C(C)=C[C@@H]34)[C@@H]1C2(C)C			5.1 mg/L	
CCCCCCCC(=O)O[C@@]12[C@H](OC(=O)[C@@H](C)CC)[C@@H](C)[C@@]3(O)[C@@H](C(=O)C(CO)=C[C@]4(O)C(=O)C(C)=C[C@@H]34)[C@@H]1C2(C)C	114 mg/L (≈ 193 µM)		50.5 mg/L	
CCCCCCCCCC(=O)O[C@@]12[C@H](OC(=O)[C@@H](C)CC)[C@@H](C)[C@@]3(O)[C@@H](C(=O)C(CO)=C[C@]4(O)C(=O)C(C)=C[C@@H]34)[C@@H]1C2(C)C	161 mg/L (≈ 261 µM)		5.18 mg/L	
CC[C@H](C)C(=O)O[C@@H]1[C@@H](C)[C@@]2(O)[C@@H](C(=O)C(CO)=C[C@]3(O)C(=O)C(C)=C[C@@H]23)[C@@H]2C(C)(C)[C@]12OC(=O)[C@@H](C)CC	15.1 mg/L (≈ 27.6 µM)		14 mg/L	
Cc1cc(C(F)(C(F)(F)F)C(F)(F)F)ccc1NC(=O)c1cccc(I)c1C(=O)NC(C)(C)CS(C)(=O)=O [FLUBENDIAMIDE]		0.14 µM		
CC/C=C\C/C=C\CCC(=O)O[C@@]12[C@H](OC(=O)[C@@H](C)CC)[C@@H](C)[C@@]3(O)[C@@H](C(=O)C(CO)=C[C@]4(O)C(=O)C(C)=C[C@@H]34)[C@@H]1C2(C)C	159 mg/L (≈ 260 µM)	0.16 µM	11.9 mg/L	
C/C=C(\C)C(=O)O[C@@H]1[C@@H](C)[C@@]2(O)[C@@H](C(=O)C(CO)=C[C@]3(O)C(=O)C(C)=C[C@@H]23)[C@@H]2C(C)(C)[C@]12OC(=O)CC/C=C\CCCCC		0.26 µM		
OC(Cn1cncn1)(Cn1cncn1)c1ccc(F)cc1F [FLUCONAZOLE]				4.4 mg/L (≈ 14.4 µM)
